Measured values taken from US20160220527A1, “KINASE INHIBITORS FOR THE TREATMENT OF CANCER” (Pitney Pharmaceuticals Pty Limited, priority 2012, published 2016).
One block for each molecule: values may come before it.

Assays:
[1] = tested on: HUVEC; test: SRB cell proliferation assay; assay type: cell-based; conditions: Homo sapiens, Table 3, AAD series, human umbilical vein endothelial cells
Procedure: (§1) The human ovarian cancer cell lines OVCAR-3, SKOV-3 and A2780 and primary cells human umbilical vein endothelial cells (HUVEC) and all other cell lines were obtained from the American Type Culture Collection (ATCC) and maintained according to their instructions. Astrocytes and glioma cell lines were kindly gifted by Dr. Kerry McDonald from Lowy Cancer Research Centre, University of New South Wales, Australia.
(§2) Cell proliferation was assessed using the sulforhodamine B (SRB) assay. Cells seeded in 96-well plate (2,000-3,000 cell/well) were treated with MPL (0, 1, 5, 10, 25, 50 and 100 μmol/L) for 72 h. Cells were then fixed, washed and stained with 100 μl of 0.4% (w/v) SRB dissolved in 1% acetic acid. Unbound dye was removed by five washes with 1% acetic acid before air drying. Bound SRB was solubilized with 100 μl of 10 mM Tris base (pH 10.5) and the absorbance read at 570 nm. Exactly the same procedure was used to assess MPL-SO2. Both agents were dissolved in ethanol and diluted with media to give the final concentrations required for cell culture assays.

[2] = tested on: CHO; test: SRB cell proliferation assay; assay type: cell-based; conditions: Cricetulus griseus, Table 3, AAD series, Chinese hamster ovarian cells
Procedure: as §1, §2

[3] = tested on: OVCAR-3; test: SRB cell proliferation assay; assay type: cell-based; conditions: Table 3, AAD series, human epithelial ovarian cancer
Procedure: as §1, §2

[4] = tested on: A2780; test: SRB cell proliferation assay; assay type: cell-based; conditions: Table 3, AAD series, human epithelial ovarian cancer
Procedure: as §1, §2

[5] = tested on: cancer cell lines; test: SRB cell proliferation assay, comparison across cell lines; assay type: cell-based
Procedure: as §2

[6] = tested on: T98G; test: SRB cell proliferation assay; assay type: cell-based; conditions: Homo sapiens, glioma
Procedure: as §1, §2

[7] = tested on: HT-29; test: SRB cell proliferation assay; assay type: cell-based; conditions: Homo sapiens; HT-29, colorectal cancer
Procedure: as §1, §2

[8] = tested on: HaCat; test: SRB cell proliferation assay; assay type: cell-based; conditions: Homo sapiens, keratinocyte
Procedure: as §1, §2

[9] = tested on: LN-18; test: SRB cell proliferation assay; assay type: cell-based; conditions: Homo sapiens; LN-18, glioma
Procedure: as §1, §2

[10] = tested on: SW-876; test: SRB cell proliferation assay; assay type: cell-based; conditions: SW-876, liposarcoma
Procedure: as §1, §2

[11] = tested on: MCF-7; test: SRB cell proliferation assay; assay type: cell-based; conditions: Homo sapiens, MCF7, MCF-7, breast cancer, 72 h
Procedure: as §1, §2

[12] = tested on: HCT-116; test: SRB cell proliferation assay; assay type: cell-based; conditions: Homo sapiens; HCT-116, colorectal cancer
Procedure: as §1, §2

[13] = tested on: HT-29 5m11; test: SRB cell proliferation assay; assay type: cell-based; conditions: Homo sapiens; HT-29 5m11, colorectal cancer
Procedure: as §1, §2

[14] = mammals; cited from earlier work
[15] = tested on: OVCAR-3 or A2780 cells; test: Colony formation assay; assay type: cell-based, human; conditions: higher concentrations of MPL; 72 h exposure, 2 weeks drug free
Procedure: For colony formation assay, 5×10^6 cells, such as OVCAR-3 or A2780 cells, were plated in 100 mm Petri dishes and allowed to attach overnight. Media were aspirated off and exponentially growing cells were incubated with various concentrations of MPL for 72 h. At this point, the medium was aspirated, the dishes were washed with PBS, and drug free medium was added to each plate. Media were changed twice weekly for 3 weeks. Following this, plates were gently washed with PBS and cells were fixed with 100% ethanol and stained with a 0.5% solution of filtered crystal violet. Colonies consisting of more than 50 cells were counted under an inverted microscope.
To determine the effect of MPL on cell integrity and capacity to rid itself from drug effects following drug exposure and withdrawal, cells were incubated with MPL (0, 5, 10, 25 μM) for 72 h, washed with PBS, transferred to agar plates, cultured with growth medium and incubated under standard conditions for 2 weeks. Cells were then fixed with 100% methanol and stained with 1% crystal violet. Colonies (Cluster of cells greater than 50) were counted under microscope (magnification ×5). Number of colonies counted for different experimental groups is expressed as percentage of the control (FIG. 14).

[16] = tested on: U87 glioma cells; test: Autophagy (vacuole formation, LC3-II); assay type: cell-based; conditions: chemo-resistant U87 glioma cells
[17] = tested on: cancer cell-lines; test: Thymidine incorporation; assay type: cell-based
[18] = tested on: nicotinic receptors; test: MPL antiproliferative effect after pre-treatment with nicotinic agonists or antagonists; assay type: cell-based; conditions: 30 min pre-treatment, MPL 5 μM, 72 h
Procedure: Cells were pre-treated (30 min) with increasing concentrations of nicotine, carbachol or the receptor antagonists, atropine, mecamylamine, tubocurarine, and α-bungarotoxin. MPL (5 μM) was added and left in the cell culture incubator for 72 h. Each drug concentration was tested in quadruplicate and each experiment was repeated twice. Combine values (mean±SEM) are presented as % control.

[19] = tested on: OVCAR-3 tumors; test: s.c. OVCAR-3 xenografts in nude mice; assay type: in vivo; conditions: for s.c. tumor growth: i.p., three times weekly
Procedure: Female nude mice (6 weeks old) were purchased from Biological Resources (University of New South Wales). Institutional animal ethics approvals covered procedures carried out on mice. Briefly, 2.5×10^6 log-phase growing OVCAR-3 cells were injected s.c. into the left flank of each mouse. Animals were weighed once weekly while their tumor volumes were determined twice weekly. Tumor growth was monitored by caliper measurements of orthogonal diameters, and the estimated tumor volume was calculated based on the formula […], where width is the shorter of the two orthogonal measurements. Based on institutional ethics approval, mice were euthanized before the tumor volume reached 500 mm3. Treatment was initiated on day 8 post tumor cell inoculation when mice were randomized and assigned to one of MPL or vehicle treated groups (5-6 mice per group). MPL was suspended in […] methylcellulose (0.5% w/v HPMC), sterilized by sonnicator and administered every other day either intraperitoneally (i.p) or orally as gavage (100 μL).
In the first pilot trial, the drug was administered i.p. at 2.5 or 25 mg/kg body weight, three times weekly for 2 weeks.
Following the outcome, in the next set of animals, the dose was increased to 25 and 50 mg/kg, three times weekly.
In the last (third) pilot study, mice were treated orally. The doses administered were 50 and 100 mg/kg three times weekly. In all these trials, mice in control groups received similar volume of the vehicle (0.5% HPMC). Tumor histology/immunohistochemistry was performed on formalin fixed tumor slices according to standard procedures.

[20] = tested on: OVCAR-3 or A2780 cells; test: Cellular ATP levels and ADP/ATP ratio; assay type: cell-based, human
[21] = tested on: OVCAR-3 or A2780 cells; test: Cell cycle analysis by flow cytometry; assay type: cell-based, human; conditions: 25 μM MPL
Procedure: The effect of MPL on the cell cycle was determined using standard flow cytometry analysis protocols and procedures. Briefly, 0.7×10^6 million cells seeded in 25 cm^3 flasks and allowed to adhere overnight were treated with MPL for 24 or 48 h. Cells were collected with trypsinization and pooled with the cells floating in the medium. The cell suspensions were centrifuged, washed with PBS and fixed with methanol. Cells were then washed, resuspended in propodium iodide and ribonuclease A in PBS for 30 min at room temperature and analyzed by flow cytometry (Becton Dickinson FACSort).

[22] = tested on: cdk2, cdk4, cyclins A, and E; test: Western blot of cell cycle regulatory proteins; assay type: cell-based; conditions: MPL 0, 5, 10, 25 μM
Procedure: Protein expression in cells was determined using western blot analysis. After treatment with the indicated concentrations of MPL, cell lysates were prepared and probed with antibodies for cdk2, cdk4, cyclin A, cyclin E, PARP-1 (1:1000 dilutions; Cell Signalling Technology), and p53 (1:200 dilutions; Santa Cruz Biotechnology).

- IC50 [3]: 20.5 ± 0.5 µM
- IC50 [4]: 28 ± 4.5 µM
Compound: CC(C#N)(COc1cc(Cl)ccc1Cl)NC(=O)c1ccc(OC(F)(F)F)cc1 (centres unmarked) [AAD 1154]
- IC50 [1]: 61.1 µM
- IC50 [2]: 34.8 µM

Compound: C[C@](C#N)(COc1cc(C#N)ccc1C(F)(F)F)NC(=O)c1ccc(S(=O)(=O)C(F)(F)F)cc1 [MPL-SO2, monepantel sulphone]
- potency compared with MPL ([5]; SRB proliferation assay): as potent as MPL

- IC50 [3]: 23.9 ± 1.45 µM
- IC50 [4]: 33.5 ± 8.5 µM
Compound: CC(C#N)(COc1ccccc1Cl)NC(=O)c1ccc(C(F)(F)F)cc1 (centres unmarked) [AAD 450]
- IC50 [1]: 96.5 µM
- IC50 [2]: 45.9 µM

Compound: C[C@](C#N)(COc1cc(C#N)ccc1C(F)(F)F)NC(=O)c1ccc(SC(F)(F)F)cc1 [MPL, N-[(1S)-1-cyano-2-(5-cyano-2-trifluoromethyl-phenoxy)-1-methyl-ethyl]-4-trifluoromethylsulfanyl-benzamide]
- IC50 [6]: 18.2 ± 0.61 µM
- IC50 [7]: 5.86 ± 0.2 µM
- IC50 [8]: 21.2 ± 3.2 µM
- IC50 [9]: 9.38 ± 0.79 µM
- IC50 [10]: 14.6 µM
- IC50 [11]: 15.4 ± 1.1 µM
- IC50 [12]: 10.5 ± 0.02 µM
- IC50 [13]: 10.4 µM
- dosage well tolerated [14]: 1000 mg of MPL per kg of body weight per 24 hours
- clonogenic ability [15]: almost complete loss of clonogenic ability
- expression of LC3-II (autophagy) [16]: increased expression of LC3-II in a concentration-dependent manner
- thymidine incorporation into the cell (DNA synthesis) [17]: Blocks thymidine incorporation
- sensitivity of chemo-resistant cell lines to antiproliferative action ([5]; ovarian chemo-resistant, glioma temozolomide resistant, breast cancer tamoxifen resistant cells): sensitive
- MPL-induced inhibition of proliferation after pre-treatment with nicotinic agonists or antagonists [18]: neither positively nor negatively affected
- tumor tissue histology ([19]; MPL treated tumors from the in vivo trials): extensive necrosis
- s.c. tumor growth ([19]; first trial, 25 mg/kg, female nude mice): particularly effective
- s.c. tumor growth ([19]; second trial, 50 mg/kg compared with 25 mg/kg): more effective in retarding tumor growth
- cellular ratio of ADP/ATP [20]: reduces the cellular ratio of ADP/ATP
- percentage of cells in G2-M phase [21]: more than three times higher
- expression of cell cycle regulatory proteins [22]: lower levels of cdk2, cdk4, cyclins A, and E
